Drawing on ChEMBL document CHEMBL5550201, “Discovery of a Highly Potent, Selective and Efficacious USP7 Degrader for the Treatment of Acute Lymphoblastic Leukemia” (J Med Chem, 2024), this text covers Activity, IC50 and DC50 for 21 compounds.

In experiment [1] the target is T1, von Hippel-Lindau disease tumor suppressor/Ubiquitin carboxyl-terminal hydrolase 7 (Homo sapiens, UniProt Q93009+P40337). Description: PROTACT activity at USP7/VHL in human RS4;11 cells assessed as protein degradation at 10 nM measured after 24 hrs by Western blot analysis relative to control. The class given is cell-based. A general note: Immunoblotting shows a protein as a band on a membrane.

The target in experiment [2] is T1, von Hippel-Lindau disease tumor suppressor/Ubiquitin carboxyl-terminal hydrolase 7. The experiment can be described thus: PROTACT activity at USP7/VHL in human RS4;11 cells assessed as protein degradation at 100 nM measured after 24 hrs by Western blot analysis relative to control. It counts as cell-based.
Experiment [3] shares this target. Description: PROTACT activity at USP7/VHL in human RS4;11 cells assessed as protein degradation at 10 to 100 nM measured after 12 hrs by Western blot analysis. It counts as cell-based. Conditions: dose 10-100 nM.
Experiment [4] has the same target. Description: PROTACT activity at USP7/VHL in human OCI-Ly10 cells assessed as protein degradation at 10 to 100 nM measured after 12 hrs by Western blot analysis. The class given is cell-based. Particulars: dose 10-100 nM.
In experiment [5] the test system is RS4-11. Description: Antiproliferative activity against human RS4-11 cells with shp53 assessed as cell viability measured after 7 days by PMS-MTS assay. It counts as functional, cell-based. Conditions: RS4-11, 168 h. (Tetrazolium assays rely on reduction of a dye to a coloured formazan, in cell work by metabolically active cells.)
A further experiment has as its system REH. The experiment can be described thus: Antiproliferative activity against human REH cells with wild type p53 assessed as cell viability measured after 3 days by PMS-MTS assay. The class given is functional, cell-based. Particulars: 72 h.
Experiment [6] deals with RS4-11. Description: Antiproliferative activity against human RS4-11 cells with wild type p53 assessed as cell viability measured after 3 days by PMS-MTS assay. It counts as functional, cell-based. Conditions: RS4-11, 72 h.
In experiment [7] the target is T1, von Hippel-Lindau disease tumor suppressor/Ubiquitin carboxyl-terminal hydrolase 7. Description: PROTACT activity at USP7/VHL in human REH cells assessed as protein degradation at 10 to 100 nM measured after 12 hrs by Western blot analysis. The class given is cell-based. Conditions: dose 10-100 nM.
A further experiment concerns BT-549. Description: Antiproliferative activity against human BT-549 cells assessed as cell viability measured after 6 days by Celltiter glo2.0 cell viability assay. Particulars: BT-549, 144 h. The class given is functional, cell-based. On the technique in general: In ATP-based viability assays light output follows the ATP content of the culture.
The subject of the next experiment is MDA-MB-468. The experiment can be described thus: Antiproliferative activity against human MDA-MB-468 cells assessed as cell viability measured after 6 days by Celltiter glo2.0 cell viability assay. It counts as functional, cell-based. Conditions: MDA-MB-468, 144 h.
Experiment [8] deals with Protein cereblon/Ubiquitin carboxyl-terminal hydrolase 7 (Homo sapiens, UniProt Q93009+Q96SW2). Description: PROTACT activity at USP7/CRBN in human CAL-33 cells assessed as protein degradation measured after 72 hrs by immune blot analysis. It counts as cell-based.
For experiment [9], the target named is von Hippel-Lindau disease tumor suppressor/USP7. The experiment can be described thus: PROTACT activity at USP7 (unknown origin) /E3 ligase (unknown origin) assessed as protein degradation.

Calls of active or inactive are those of the source. The rule behind the calls is not given here.

T1 sequence (P40337 whole entry, looked up): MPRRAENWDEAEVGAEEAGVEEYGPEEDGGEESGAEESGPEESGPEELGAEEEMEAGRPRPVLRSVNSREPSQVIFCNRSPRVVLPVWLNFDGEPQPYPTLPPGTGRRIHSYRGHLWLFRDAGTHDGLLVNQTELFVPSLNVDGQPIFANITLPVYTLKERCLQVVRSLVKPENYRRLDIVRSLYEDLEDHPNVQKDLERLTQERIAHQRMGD
T1 sequence (Q93009 whole entry, looked up): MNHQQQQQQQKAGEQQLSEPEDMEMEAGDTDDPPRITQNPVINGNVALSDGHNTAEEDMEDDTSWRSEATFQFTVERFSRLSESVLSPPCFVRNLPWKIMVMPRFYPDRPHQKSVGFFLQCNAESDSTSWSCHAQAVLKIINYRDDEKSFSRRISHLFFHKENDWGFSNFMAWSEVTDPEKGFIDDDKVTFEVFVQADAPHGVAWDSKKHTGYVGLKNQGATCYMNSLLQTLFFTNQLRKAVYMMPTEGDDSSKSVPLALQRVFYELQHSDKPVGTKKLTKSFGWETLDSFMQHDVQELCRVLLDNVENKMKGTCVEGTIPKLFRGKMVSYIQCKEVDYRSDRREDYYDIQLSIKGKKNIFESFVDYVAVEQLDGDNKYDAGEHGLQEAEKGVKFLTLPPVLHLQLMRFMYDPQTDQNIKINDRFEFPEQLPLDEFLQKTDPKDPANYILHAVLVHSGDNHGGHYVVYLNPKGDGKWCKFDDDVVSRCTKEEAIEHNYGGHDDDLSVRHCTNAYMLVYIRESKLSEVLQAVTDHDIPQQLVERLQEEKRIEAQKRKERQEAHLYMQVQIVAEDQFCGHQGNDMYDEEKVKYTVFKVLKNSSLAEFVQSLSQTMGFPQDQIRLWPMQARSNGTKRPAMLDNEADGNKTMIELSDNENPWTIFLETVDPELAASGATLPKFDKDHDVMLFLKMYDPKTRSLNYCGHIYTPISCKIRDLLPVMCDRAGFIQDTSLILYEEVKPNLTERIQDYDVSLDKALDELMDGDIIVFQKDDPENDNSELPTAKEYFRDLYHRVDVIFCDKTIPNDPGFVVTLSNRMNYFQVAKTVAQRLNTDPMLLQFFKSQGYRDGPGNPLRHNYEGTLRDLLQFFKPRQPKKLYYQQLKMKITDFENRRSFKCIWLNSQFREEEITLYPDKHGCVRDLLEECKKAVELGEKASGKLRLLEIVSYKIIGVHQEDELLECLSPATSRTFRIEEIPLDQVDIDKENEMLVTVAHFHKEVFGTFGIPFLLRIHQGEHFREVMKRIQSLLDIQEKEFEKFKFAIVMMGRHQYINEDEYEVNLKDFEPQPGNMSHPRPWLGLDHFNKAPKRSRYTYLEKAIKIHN
Chain of Protein cereblon/Ubiquitin carboxyl-terminal hydrolase 7 (Q93009 whole entry): as the sequence (Q93009 whole entry, looked up) above
Chain of Protein cereblon/Ubiquitin carboxyl-terminal hydrolase 7 (Q96SW2 whole entry): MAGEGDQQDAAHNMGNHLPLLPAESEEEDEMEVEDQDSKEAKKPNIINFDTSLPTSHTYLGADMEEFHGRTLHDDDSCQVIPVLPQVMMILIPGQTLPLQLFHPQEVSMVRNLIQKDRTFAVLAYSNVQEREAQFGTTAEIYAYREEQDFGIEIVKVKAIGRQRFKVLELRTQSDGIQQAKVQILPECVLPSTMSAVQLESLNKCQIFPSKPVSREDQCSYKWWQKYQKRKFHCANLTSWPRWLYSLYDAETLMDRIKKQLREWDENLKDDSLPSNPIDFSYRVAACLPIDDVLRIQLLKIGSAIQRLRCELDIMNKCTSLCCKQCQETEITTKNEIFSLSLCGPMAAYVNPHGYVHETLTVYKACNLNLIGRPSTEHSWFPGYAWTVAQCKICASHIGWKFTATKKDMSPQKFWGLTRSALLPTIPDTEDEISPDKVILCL

As to `Cc1ncsc1-c1ccc([C@H](C)NC(=O)[C@@H]2C[C@@H](O)CN2C(=O)[C@@H](c2cc(N3CCC(N4CCC(NCc5ccc(-c6c7ncn(CC8(O)CCN(C(=O)C[C@@H](C)c9ccccc9)CC8)c(=O)c7nn6C)cc5)CC4)CC3)no2)C(C)C)cc1`, the Activity in experiment [1] amounted to 25.6%; in experiment [2] it was 37.3%.

For the compound `Cc1ncsc1-c1ccc([C@H](C)NC(=O)[C@@H]2C[C@@H](O)CN2C(=O)[C@@H](NC(=O)CCCCCCCCCCCNCc2ccc(-c3c4ncn(CC5(O)CCN(C(=O)C[C@@H](C)c6ccccc6)CC5)c(=O)c4nn3C)cc2)C(C)(C)C)cc1`, the Activity in experiment [1] amounted to 31.9%; in [2] it was 75.5%.

Turning to `Cc1ncsc1-c1ccc([C@H](C)NC(=O)[C@@H]2C[C@@H](O)CN2C(=O)[C@@H](c2cc(N3CCC(CNCc4ccc(-c5c6ncn(CC7(O)CCN(C(=O)C[C@@H](C)c8ccccc8)CC7)c(=O)c6nn5C)cc4)CC3)no2)C(C)C)cc1`, the Activity is 69.5% in [1] and 91.3% in experiment [2].

On to `Cc1ncsc1-c1ccc([C@H](C)NC(=O)[C@@H]2C[C@@H](O)CN2C(=O)[C@@H](NC(=O)CCCCCCCCNCc2ccc(-c3c4ncn(CC5(O)CCN(C(=O)C[C@@H](C)c6ccccc6)CC5)c(=O)c4nn3C)cc2)C(C)(C)C)cc1`, for which the figures for the Activity in experiment [1] and in experiment [2] were 26.1% and 39.1%, respectively.

A word on the IC50: it is the concentration that gives 50% inhibition. With `Cc1ncsc1-c1ccc([C@H](C)NC(=O)[C@@H]2C[C@H](O)CN2C(=O)[C@@H](c2cc(N3CCN(Cc4ccc(-c5c6ncn(CC7(O)CCN(C(=O)C[C@@H](C)c8ccccc8)CC7)c(=O)c6nn5C)cc4)CC3)no2)C(C)C)cc1`, the outcome in experiment [3], in experiment [4] and in [7] was inactive. Also, the values for the IC50 in the experiment with RS4-11 [5], in the experiment with REH and in the experiment on RS4-11 [6] were over 20000 nM, 7390 nM and 873 nM, respectively.

Take `Cc1ncsc1-c1ccc([C@H](C)NC(=O)[C@@H]2C[C@@H](O)CN2C(=O)[C@@H](NC(=O)CCCCCCCCCNCc2ccc(-c3c4ncn(CC5(O)CCN(C(=O)C[C@@H](C)c6ccccc6)CC5)c(=O)c4nn3C)cc2)C(C)(C)C)cc1`: the Activity in [1] is 29.2%; in experiment [2] it was 55.1%.

As to `Cc1ncsc1-c1ccc([C@H](C)NC(=O)[C@@H]2C[C@@H](O)CN2C(=O)[C@@H](c2cc(N3CCC(CN4CCC(NCc5ccc(-c6c7ncn(CC8(O)CCN(C(=O)C[C@@H](C)c9ccccc9)CC8)c(=O)c7nn6C)cc5)CC4)CC3)no2)C(C)C)cc1`, the Activity is 22.2% in experiment [1] and 37.7% in experiment [2].

Regarding `Cc1ncsc1-c1ccc([C@H](C)NC(=O)[C@@H]2C[C@@H](O)CN2C(=O)[C@@H](c2cc(N3CCC(CN4CC(NCc5ccc(-c6c7ncn(CC8(O)CCN(C(=O)C[C@@H](C)c9ccccc9)CC8)c(=O)c7nn6C)cc5)C4)CC3)no2)C(C)C)cc1`, the Activity in [1] was 0.4%; in experiment [2], 60.2%.

With `C[C@H](CC(=O)N1CCC(O)(Cn2cnc3c(-c4ccc(CN)cc4)n(C)nc3c2=O)CC1)c1ccccc1`, the half-inhibitory concentration (IC50) with RS4-11 [5] was over 20000 nM; with REH it was 20.3 nM; with RS4-11 [6] it was 69 nM.

One may read the DC50 as the midpoint of the concentration-degradation curve. In the case of `O=C1CCC(N2Cc3c(CCCCCN4CCN(CCC(=O)Nc5ccc6c(=O)n(CC7(O)CCN(C(=O)C(CCCNC(=O)c8ccc9c(Cl)c%10c(nc9c8)CCCC%10)Cc8ccccc8)CC7)cnc6c5)CC4)cccc3C2=O)C(=O)N1` (configuration not stated), the IC50 with BT-549 was determined as 2800 nM; in the experiment on MDA-MB-468, 1800 nM. Moreover, in experiment [8], the DC50 turned out to be 4.3 nM.

`Cc1ncsc1-c1ccc([C@H](C)NC(=O)[C@@H]2C[C@@H](O)CN2C(=O)[C@@H](c2cc(N3CCC(N4CC(NCc5ccc(-c6c7ncn(CC8(O)CCN(C(=O)C[C@@H](C)c9ccccc9)CC8)c(=O)c7nn6C)cc5)C4)CC3)no2)C(C)C)cc1`: the Activity in [1] came out at 16%; in experiment [2], 16.9%.

Take `Cc1ncsc1-c1ccc([C@H](C)NC(=O)[C@@H]2C[C@@H](O)CN2C(=O)[C@@H](NC(=O)CCCCCCCCCCNCc2ccc(-c3c4ncn(CC5(O)CCN(C(=O)C[C@@H](C)c6ccccc6)CC5)c(=O)c4nn3C)cc2)C(C)(C)C)cc1`: the Activity in experiment [1] was 30.1%; in experiment [2], 66.7%.

Consider `Cc1ncsc1-c1ccc([C@H](C)NC(=O)[C@@H]2C[C@@H](O)CN2C(=O)[C@@H](NC(=O)CCCCCNCc2ccc(-c3c4ncn(CC5(O)CCN(C(=O)C[C@@H](C)c6ccccc6)CC5)c(=O)c4nn3C)cc2)C(C)(C)C)cc1`, for which the results for the Activity in experiment [1] and in experiment [2] were 38% and 56.5%, respectively.

As to `Cc1ncsc1-c1ccc([C@H](C)NC(=O)[C@@H]2C[C@@H](O)CN2C(=O)[C@@H](c2cc(N3CCC(CN4CCC(CNCc5ccc(-c6c7ncn(CC8(O)CCN(C(=O)C[C@@H](C)c9ccccc9)CC8)c(=O)c7nn6C)cc5)CC4)CC3)no2)C(C)C)cc1`, the Activity is 50.8% in experiment [1] and 73.5% in experiment [2].

With `Cc1ncsc1-c1ccc([C@H](C)NC(=O)[C@@H]2C[C@@H](O)CN2C(=O)[C@@H](NC(=O)CCCCCCCNCc2ccc(-c3c4ncn(CC5(O)CCN(C(=O)C[C@@H](C)c6ccccc6)CC5)c(=O)c4nn3C)cc2)C(C)(C)C)cc1`, the Activity in experiment [1] was found to be 46.9%; in experiment [2], 58.1%.

As to `Cc1ncsc1-c1ccc([C@H](C)NC(=O)[C@@H]2C[C@@H](O)CN2C(=O)[C@@H](NC(=O)CCOCCOCCNCc2ccc(-c3c4ncn(CC5(O)CCN(C(=O)C[C@@H](C)c6ccccc6)CC5)c(=O)c4nn3C)cc2)C(C)(C)C)cc1`, the Activity in experiment [1] was 12.8%; in experiment [2], 26.8%.

Regarding `Cc1ncsc1-c1ccc([C@H](C)NC(=O)[C@@H]2C[C@@H](O)CN2C(=O)[C@@H](c2cc(N3CCC(CN4CC(CNCc5ccc(-c6c7ncn(CC8(O)CCN(C(=O)C[C@@H](C)c9ccccc9)CC8)c(=O)c7nn6C)cc5)C4)CC3)no2)C(C)C)cc1`, the Activity in [1] is 35%; in experiment [2] it was 55.1%.

On to `Cc1ncsc1-c1ccc([C@H](C)NC(=O)[C@@H]2C[C@@H](O)CN2C(=O)[C@@H](NC(=O)CCOCCOCCOCCNCc2ccc(-c3c4ncn(CC5(O)CCN(C(=O)C[C@@H](C)c6ccccc6)CC5)c(=O)c4nn3C)cc2)C(C)(C)C)cc1`, for which the results for the Activity in experiment [1] and in [2] were 26.1% and 33.6%, respectively.

Turning to `C[C@H](CC(=O)N1CCC(O)(Cn2cnc3c(-c4ccc(CNCCCCCCCCCCCNc5cccc6c5C(=O)N(C5CCC(=O)NC5=O)C6=O)cc4)n(C)nc3c2=O)CC1)c1ccccc1` (some centres not stated), in [9], the DC50 is about 33 nM.

In the case of `Cc1ncsc1-c1ccc([C@H](C)NC(=O)[C@@H]2C[C@@H](O)CN2C(=O)[C@@H](NC(=O)CCOCCOCCOCCOCCNCc2ccc(-c3c4ncn(CC5(O)CCN(C(=O)C[C@@H](C)c6ccccc6)CC5)c(=O)c4nn3C)cc2)C(C)(C)C)cc1`, the Activity in experiment [1] is 13%; in [2] it was 44.4%.

As to `Cc1ncsc1-c1ccc([C@H](C)NC(=O)[C@@H]2C[C@@H](O)CN2C(=O)[C@@H](c2cc(N3CCC(N4CC(CNCc5ccc(-c6c7ncn(CC8(O)CCN(C(=O)C[C@@H](C)c9ccccc9)CC8)c(=O)c7nn6C)cc5)C4)CC3)no2)C(C)C)cc1`, the Activity worked out at 15.5% in experiment [1] and 25.6% in [2].
